Values after ≈ are worked out from the molar mass of the structure shown.
Columns and labels:
[1] = tested on: spores; details: prior art / commercially available products; cited from earlier work
[2] = tested on: Cand. alb.; test: in vitro series dilution test (MIC), Cand. alb.; type: cell-based; details: 28° C., 24-96 hours, 10^3 germs/ml; read-out: MIC values when used against Cand. alb.
Experimental: (§1) The in vitro test was carried out as a series dilution test. Amount inoculated: 10^3 germs/ml. The nutrient substrates used were Sabouraud's milieu d'epreuve, meat stock/glucose bouillon, malt extract agar and Francis's blood agar. The incubation temperature was 28° C. and the incubation time 24-96 hours.

[3] = tested on: Asp. fum.; test: in vitro series dilution test (MIC), Asp. fum.; type: cell-based; details: Aspergillus fumigatus; 28° C., 24-96 hours, 10^3 germs/ml; read-out: MIC values when used against Asp. fum.
Experimental: as §1

[4] = tested on: Sporothrix Schenckii; test: in vitro series dilution test (MIC), Sporothrix Schenckii; type: cell-based; details: 28° C., 24-96 hours, 10^3 germs/ml, read-out: MIC values when used against Sporothrix Schenckii
Experimental: as §1

[5] = tested on: Torulopsis glab.; test: in vitro series dilution test (MIC), Torulopsis glab.; type: cell-based; details: 28° C., 24-96 hours, 10^3 germs/ml; read-out: MIC values when used against Torulopsis glab.
Experimental: as §1

[6] = tested on: Trich. ment.; test: in vitro series dilution test (MIC), Trich. ment.; type: cell-based; details: Trichophyton mentagrophytes; 28° C., 24-96 hours, 10^3 germs/ml; read-out: MIC values when used against Trich. ment.
Experimental: as §1

[7] = tested on: candidosis; test: in vivo action on oral administration, candidosis of mice; details: 100 mg/kg of body weight, twice daily, Control 5
Text: (§2) The table which follows summarizes in the vivo action of the preparations claimed on oral administration--for the models of candidosis of mice and trichophytia of mice--and on local administration--for the model of trichophytia of guinea-pigs.

[8] = tested on: trichophytia; test: in vivo action on oral administration, trichophytia of mice; design: key: ++++: very good action = no sign of; +++: good action = very slight sign of; ++: action = slight loss of hair; +: slight action = loss of hair, squamation; details: 100 mg/kg of body weight, twice daily, Control pronounced dermatophytosis
Text: as §2

[9] = tested on: trichophytia; test: in vivo action on local administration, trichophytia of guinea-pigs; design: key: ++++: very good action = no sign of; +++: good action = very slight sign of; ++: action = slight loss of hair; +: slight action = loss of hair, squamation; details: 1% strength solution once a day from the 3rd to the 13th day after infection, Control pronounced dermatophytosis
Text: as §2

[10] = tested on: Trich. ment.; test: sporocidal action, Trich. ment. spores; type: cell-based, Trichophyton mentagrophytes; details: 10 γ of preparation/ml, 72 hours; Control 10^5 = mycelium
Experimental: (§3) About 10^4 spores of Trich. ment. or Trich. Quinckeanum or Aspergillus fumigatus per ml are suspended in physiological NaCl solution and the stated preparations are added in concentrations of 1, 5, 10, 50 and 100 y/ml of suspending solution. The spore suspensions are incubated for 24, 48, 72, 96, 120 and 240 hours, 0.1 ml are withdrawn per concentration and per tube after the stated incubation times and spread homogeneously on malt extract Petri dishes, and the number of spores which still germinate is counted, after 48 hours' incubation time at 28° C., in comparison to untreated controls. The table which follows lists, for the individual preparations, the number of spores which still germinate after an exposure period of 72 hours at preparation concentrations of 10 γ/ml.

[11] = tested on: Aspergillus fum.; test: sporocidal action, Aspergillus fumigatus spores; type: cell-based; details: 10 γ of preparation/ml, 72 hours; Control 10^5 = mycelium
Experimental: as §3

MIC [2] | MIC [3] | MIC [4] | MIC [5] | MIC [6] | SMILES | Therapeutic activity, candidosis, % survival [7] | Therapeutic activity, trichophytia, oral administration [8] | Therapeutic activity, trichophytia, local application [9] | Number of spores still capable of germination, Trich. ment. [10] | Number of spores still capable of germination, Aspergillus fum. [11] | other results
 |  |  |  |  | COC1=CC(=O)C[C@@H](C)[C@]12Oc1c(Cl)c(OC)cc(OC)c1C2=O [Griseofulvin] |  |  |  |  |  | sporocidal activity [1]: not present
 |  |  |  |  | C[C@@H]1[C@H](O)[C@@H](C)/C=C/C=C/CC/C=C/C=C/C=C/C=C/C(O[C@H]2O[C@H](C)[C@@H](O)[C@H](N)[C@@H]2O)CC2O[C@](O)(CC(O)C(O)CCC(O)CC(O)CC(O)CC(=O)O[C@H]1C)CC(O)C2C(=O)O (stereo partly drawn) [Nystatin] |  |  |  |  |  | sporocidal activity [1]: not present
4 µg/mL (≈ 10.8 µM) | 2 to 4 µg/mL (≈ 5.39 to 10.8 µM) | 0.1 µg/mL (≈ 0.27 µM) | 4 µg/mL (≈ 10.8 µM) | < 1 µg/mL | CC(C)(C)C(O)C(Oc1ccc(-c2ccc(Cl)cc2)cc1)n1ccnc1 (stereo not drawn) [drawing 8] |  |  |  |  |  | 
4 µg/mL (≈ 11.4 µM) | < 1 µg/mL | 0.5 µg/mL (≈ 1.43 µM) | 4 µg/mL (≈ 11.4 µM) | < 1 µg/mL | CC(C)(C)C(O)C(Oc1ccc(Cc2ccccc2)cc1)n1ccnc1 (stereo not drawn) [drawing 9] |  |  |  |  |  | 
2 to 4 µg/mL (≈ 4.99 to 9.99 µM) | < 1 µg/mL | 0.5 µg/mL (≈ 1.25 µM) | 4 µg/mL (≈ 9.99 µM) | < 1 µg/mL | CC(C)(C)C(O)C(Oc1ccc(S(=O)(=O)c2ccccc2)cc1)n1ccnc1 (stereo not drawn) [drawing 10] |  |  |  |  |  | 
8 µg/mL (≈ 16.6 µM) | 4 µg/mL (≈ 8.3 µM) | 0.1 µg/mL (≈ 0.207 µM) | 2 µg/mL (≈ 4.15 µM) | 4 µg/mL (≈ 8.3 µM) | CC(C)(C)C(=O)C(Oc1c(Cl)cc(-c2ccc(Br)cc2)cc1Cl)n1ccnc1 (stereo not drawn) [drawing 11] |  |  |  |  |  | 
16 µg/mL (≈ 45.9 µM) | 2 µg/mL (≈ 5.74 µM) | 2 µg/mL (≈ 5.74 µM) | 4 µg/mL (≈ 11.5 µM) | < 1 µg/mL | CC(C)(C)C(=O)C(Oc1ccc(Cc2ccccc2)cc1)n1ccnc1 (stereo not drawn) [drawing 12] |  |  |  |  |  | 
4 µg/mL (≈ 10 µM) | 1 µg/mL (≈ 2.51 µM) | 2 µg/mL (≈ 5.02 µM) | 2 µg/mL (≈ 5.02 µM) | 64 µg/mL (≈ 161 µM) | CC(C)(C)C(=O)C(Oc1ccc(S(=O)(=O)c2ccccc2)cc1)n1ccnc1 (stereo not drawn) [drawing 13] |  |  |  |  |  | 
8 µg/mL (≈ 15.2 µM) | 4 µg/mL (≈ 7.6 µM) | 4 µg/mL (≈ 7.6 µM) | 4 µg/mL (≈ 7.6 µM) | 8 µg/mL (≈ 15.2 µM) | CC(C)(C)C(=O)C(Oc1c(Cl)cc(-c2ccc(Br)cc2)cc1Br)n1ccnc1 (stereo not drawn) [drawing 14] |  |  |  |  |  | 
 |  |  |  |  | CC(C)(C)C(O)C(Oc1ccc(-c2ccc(Cl)cc2)cc1)n1ccnc1 (stereo not drawn) [drawing 15] | 80% | +++ | ++++ |  |  | 
 |  |  |  |  | CC(C)(C)C(O)C(Oc1ccc(Cc2ccccc2)cc1)n1ccnc1 (stereo not drawn) [drawing 16] | 60% | ++ | +++ |  |  | 
 |  |  |  |  | CC(C)(C)C(O)C(Oc1ccc(S(=O)(=O)c2ccccc2)cc1)n1ccnc1 (stereo not drawn) [drawing 17] | 80% | ++ | +++ |  |  | 
 |  |  |  |  | CC(C)(C)C(=O)C(Oc1c(Cl)cc(-c2ccc(Br)cc2)cc1Cl)n1ccnc1 (stereo not drawn) [drawing 18] | 50% | ++ | +++ |  |  | 
 |  |  |  |  | CC(C)(C)C(=O)C(Oc1ccc(Cc2ccccc2)cc1)n1ccnc1 (stereo not drawn) [drawing 19] | 50% | +++ | ++ |  |  | 
 |  |  |  |  | CC(C)(C)C(=O)C(Oc1ccc(S(=O)(=O)c2ccccc2)cc1)n1ccnc1 (stereo not drawn) [drawing 20] | 80% | ++ | +++ |  |  | 
 |  |  |  |  | CC(C)(C)C(=O)C(Oc1c(Cl)cc(-c2ccc(Br)cc2)cc1Br)n1ccnc1 (stereo not drawn) [drawing 21] | 40% | + | ++ |  |  | 
 |  |  |  |  | CC(C)(C)C(O)C(Oc1ccc(-c2ccc(Cl)cc2)cc1)n1ccnc1 (stereo not drawn) [drawing 22] |  |  |  | 80 | 35 | 
 |  |  |  |  | CC(C)(C)C(O)C(Oc1ccc(Cc2ccccc2)cc1)n1ccnc1 (stereo not drawn) [drawing 23] |  |  |  | 110 | 40 | 
 |  |  |  |  | CC(C)(C)C(O)C(Oc1ccc(S(=O)(=O)c2ccccc2)cc1)n1ccnc1 (stereo not drawn) [drawing 24] |  |  |  | 60 | 70 | 
 |  |  |  |  | CC(C)(C)C(=O)C(Oc1c(Cl)cc(-c2ccc(Br)cc2)cc1Cl)n1ccnc1 (stereo not drawn) [drawing 25] |  |  |  | 90 | 40 | 
 |  |  |  |  | CC(C)(C)C(=O)C(Oc1ccc(Cc2ccccc2)cc1)n1ccnc1 (stereo not drawn) [drawing 26] |  |  |  | 40 | 60 | 
 |  |  |  |  | CC(C)(C)C(=O)C(Oc1ccc(S(=O)(=O)c2ccccc2)cc1)n1ccnc1 (stereo not drawn) [drawing 27] |  |  |  | 10^5 | 70 | 
 |  |  |  |  | CC(C)(C)C(=O)C(Oc1c(Cl)cc(-c2ccc(Br)cc2)cc1Br)n1ccnc1 (stereo not drawn) [drawing 28] |  |  |  | 60 | 45 | 

Reference: US4239767A, “Antimycotic diaryloxy-imidazolyl-O,N-acetals” (Bayer Aktiengesellschaft, priority 1974, dated 1980)
